Results published in US20260008775A1, “AZOLE MODULATORS OF CHOLESTEROL BIOSYNTHESIS AND THEIR USE FOR PROMOTING REMYELINATION” (GENENTECH, INC., priority 2022, published 2026).

How the values were obtained:
[1] = biological target: human emopamil binding protein and human 7-dehydrocholesterol reductase (hEBP-DHCR7) (Homo sapiens (Human), UniProt Q15125); assay: hEBP-DHCR7 radioligand binding assay (filter binding, membranes of co-expressing HEK293 cells); settings: competition with [3H] radioligand, 8 doses 0.06 to 5000 nM, Ki calculated from IC50
Experimental: Membrane Preparation: human emopamil binding protein and human 7-dehydrocholesterol reductase co-expressing cells were generated by transient transfecting host human embryonic kidney (HEK) 293 cells with 2 DNA constructs containing each protein's coding sequence. Cells were suspension cultured at 37° C. with 5% CO2 in […] 293 Expression Medium (Thermofisher). Whole cell membrane was prepared by harvesting the cell pellet, adding cold membrane buffer (50 mM Tris, pH7.5, 1× Roche COMPLETE EDTA-free protease inhibitor cocktail) 10 times volume of the cell pellets weight, lysing cell pellet on ice by using Dounce homogenizer, spinning at 200 g 4° C. for 15 min, collecting supernatant and spinning again at 25000 g 4° C. for 50 min, transferring pellet to Dounce homogenizer, re-suspending pellet by homogenizing in membrane buffer on ice to reach ˜25 mg/mL, then keeping whole cell membrane aliquots at −80° C.
Compounds were prepared in a 96-well U bottom plate (Corning Cat #7007) using an Echo550 machine and 10 mM compound DMSO stock solution, followed by an 8-dose 5-fold serial dilutions protocol with final testing compound concentration ranging from 0.06 to 5000 nM, with DMSO back fill to 100 nL/well and n=2. […] The UniFilter-96 GF/B plates (PerkinElmer Cat #6005177) were pre-treated by adding 50 μl/well of 0.3% (v/v) Polyethylenimine (PEI) (branched, Sigma Cat #408727) to UniFilter-96 GF/B plates. The plates were sealed and incubated at 4° C. for 3 hrs. Then, the plates were washed with ice-cold assay buffer 3 times. The radioligand binding assay was prepared by adding assay buffer diluted hEBP-DHCR7 membrane at 66.7 µg/ml×150 μl/well into the 96-well compound plate to reach 10 μg membrane per well. Then, the assay buffer diluted [3H]—(S)-6-(2-Methyl-3-(6-(trifluoromethyl)pyridin-3-yl)propyl)-2-thia-6-azaspiro[3.4]octane 2,2-dioxide (Moravek, Cat #MT-1003106) was added at 25 nM×50 μl/well. Following this, the plate was centrifuged at 1000 rpm for 30 secs. The plate was then sealed and agitated at 600 rpm at 22° C. for 5 min, and then incubated at 22° C. for 3 hrs. The incubation was stopped by transferring the binding solution to the pre-treated UniFilter-96 GF/B plate, vacuum filtrated, and then washed four times with ice-cold assay buffer. Following this, the plates were dried at 37° C. for 45 min. The plates were then sealed at the bottom. 40 µl/well of scintillation cocktail was added to the plates. A MicroBeta2 microplate counter was then used to read the plate and analyze the data. For reference and test compounds, the results are expressed as % Inhibition, using the normalization equation: N=100−100×(U−C2)/(C1−C2), where U is the unknown value, C1 is the average of high controls, and C2 is the average value of low controls.

[2] = tested on: zymostenol accumulation (EBP) in EpiSC-derived OPCs; assay: GC/MS-based sterol profiling, zymostenol accumulation in EpiSC-derived OPCs; format: cell-based, mouse; settings: Mus musculus, 24 h, EpiSC-derived OPCs, 24 hr, 8 doses from 0.15 nM to 333 nM; read-out: Mouse Zymostenol GCMS EC50
Experimental: To assess effects of treatments on OPCs, all treatments were assayed in two or more independent platings of epiblast stem cell-derived OPCs (EpiSC). EpiSC-derived OPCs were obtained using in vitro differentiation protocols and culture conditions described previously (Najm et al, 2011, Nature Methods). OPCs were expanded and frozen down in aliquots. OPCs were thawed into growth conditions for at least one passage before use in further assays.
Sterols were monitored using a modified Folch wash protocol (Hubler et al, 2018, Nature). EpiSC-derived OPCs were plated at 100,000 cells per well in PO- and laminin-coated 96-well plates in N2B27 media without growth factors. After 24 hours, cells were rinsed with saline and plates were frozen. Cholesterol-d7 standard was then added to each well before drying under nitrogen stream and derivatization with 55 μl of bis(trimethylsilyl) trifluoroacetamide. After derivatization, 2 μl were analyzed by gas chromatography/mass spectrometry using an Agilent 5973 Network Mass Selective Detector equipped with a 6890 gas chromatograph system and a HP-5MS capillary column (30 m×0.25 mm×[…]). Samples were analyzed in full scan mode using electron impact ionization; ion fragment peaks were integrated to calculate sterol abundance, and quantitation was relative to cholesterol-d7. The following ion fragments were used to quantitate each metabolite: cholesterol-d7 (465), FF-Mas (482), cholesterol (368), zymostenol (458), zymosterol (456), Desmosterol (456, 343), 7-dehydrocholesterol (456, 325), lanosterol (393), lathosterol (458), 14-dehydrozymostenol (456, 351). […] All standards were obtained from Avanti Polar Lipids unless otherwise indicated. Calibration curves were generated by injecting varying concentrations of sterol standards and maintaining a fixed amount of cholesterol-D7. For normalized zymostenol accumulation results, the total amount of zymostenol measured after drug treatment was divided by the total amount of zymostenol accumulated after 24 hr treatment with 100 nM positive control reference.

Chain of human emopamil binding protein and human 7-dehydrocholesterol reductase (hEBP-DHCR7) (Q15125 whole entry): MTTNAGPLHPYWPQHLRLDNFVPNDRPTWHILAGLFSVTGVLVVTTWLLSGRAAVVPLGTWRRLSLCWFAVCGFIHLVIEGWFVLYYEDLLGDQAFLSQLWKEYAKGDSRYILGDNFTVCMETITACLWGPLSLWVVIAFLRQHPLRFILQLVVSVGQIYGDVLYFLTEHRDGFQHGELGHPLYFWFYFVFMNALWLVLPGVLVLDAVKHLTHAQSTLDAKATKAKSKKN

Row | SMILES | Ki [1] [nM] | EC50 [2] [nM]
1 | CC(C)n1nc(-c2cncc(C(F)(F)F)c2)cc1[C@H]1[C@@H]2CC(N3CCOC[C@@H]3C)C[C@@H]21 (single isomer, unassigned) [43*] | 65 | 243
2 | CC(C)n1nc(-c2cccc(OC(F)F)c2)nc1[C@H]1[C@@H]2C[C@@H](N3CCCOCC3)C[C@@H]21 [Compound 74, 4-((1R,3s,5S,6r)-6-(3-(3-(Difluoromethoxy)phenyl)-1-isopropyl-1H-1,2,4-triazol-5-yl)bicyclo[3.1.0]hexan-3-yl)-1,4-oxazepane] | 37 | 168
3 | CC[C@@H]1CN([C@@H]2CC[C@H](c3nc(-c4cncc(F)c4)nn3C(C)C)C2)CCO1 [Compound 124, (R)-2-Ethyl-4-((1R,3S)-3-(3-(5-fluoropyridin-3-yl)-1-isopropyl-1H-1,2,4-triazol-5-yl)cyclopentyl)morpholine] | 2400 | 376
4 | CC(C)n1nc(-c2cccc(OC(F)F)c2)nc1[C@H]1[C@@H]2C[C@@H](N3CCOC[C@H]3C)C[C@@H]21 [Compound 77, (R)-4-((1R,3s,5S,6R)-6-(3-(3-(Difluoromethoxy)phenyl)-1-isopropyl-1H-1,2,4-triazol-5-yl)bicyclo[3.1.0]hexan-3-yl)-3-methylmorpholine] | 129 | 191
5 | CC(C)n1nc(-c2cccc(C(F)(F)F)n2)nc1[C@H]1CC[C@@H](N2CCOC[C@@H]2C)CC1 (single isomer, unassigned) [79*] | – | 23.1
6 | CC(C)n1nc(-c2cncc(C(F)(F)F)c2)nc1[C@H]1[C@@H]2C[C@@H](N3CCOC[C@@H]3C)C[C@@H]21 [Compound 121, (S)-4-((1R,3s,5S,6R)-6-(1-Isopropyl-3-(5-(trifluoromethyl)pyridin-3-yl)-1H-1,2,4-triazol-5-yl)bicyclo[3.1.0]hexan-3-yl)-3-methylmorpholine] | 564 | 193
7 | CC(C)n1nc(-c2cncc(C(F)(F)F)c2)cc1[C@H]1CC[C@@H](N2CCCOCC2)C1 (single isomer, unassigned) [64*] | 15.6 | 2.75
8 | CC(C)n1nc(-c2ccc(C(F)(F)F)nc2)cc1[C@H]1CC[C@@H](N2CCN(CCO)CC2)C1 (single isomer, unassigned) [89*] | 42.4 | 21.9
9 | CC(C)n1nc(-c2cccc(C(F)(F)F)n2)nc1[C@H]1CC[C@H](N2CCOC[C@H]2C)CC1 (single isomer, unassigned) [80*] | 528 | 112
10 | CC(C)n1nc(-c2cccc(C(F)(F)F)n2)nc1[C@H]1CC[C@H](N2CCOC[C@@H]2C)CC1 (single isomer, unassigned) [78*] | – | > 333
11 | CC(C)n1nc(-c2cnc(C(F)(F)F)nc2)nc1[C@H]1CC[C@H](N2CCOCC2)C1 [Compound 94, 4-((1S,3S)-3-(1-Isopropyl-3-(2-(trifluoromethyl)pyrimidin-5-yl)-1H-1,2,4-triazol-5-yl)cyclopentyl)morpholine] | 243 | 187
12 | CC(C)n1nc(-c2ccnc(C(F)(F)F)n2)cc1[C@H]1[C@@H]2C[C@H](N3CCOCC3)C[C@@H]21 [Compound 99, 4-((1R,3r,5S,6r)-6-(1-Isopropyl-3-(2-(trifluoromethyl)pyrimidin-4-yl)-1H-pyrazol-5-yl)bicyclo[3.1.0]hexan-3-yl)morpholine] | 87.8 | 62
13 | CC(C)n1nc(-c2cccc(C(F)(F)F)n2)nc1[C@H]1CC[C@@H](N2CCOC[C@H]2C)CC1 (single isomer, unassigned) [81*] | – | 27.3
14 | CC(C)n1nc(-c2cc(C(F)(F)F)ccn2)nc1[C@@H]1CC[C@@H](N2CCOCC2)C1 (single isomer, unassigned) [27*] | – | 141

The next lines start with the values.

Row | Ki [1] [nM] | EC50 [2] [nM] | SMILES
15 | 58.2 | 13.4 | CC[C@@H]1CN([C@@H]2CC[C@@H](c3nc(-c4cnc(C(F)(F)F)nc4)nn3C(C)C)C2)CCO1 [Compound 153, (R)-2-Ethyl-4-((1R,3R)-3-(1-isopropyl-3-(2-(trifluoromethyl)pyrimidin-5-yl)-1H-1,2,4-triazol-5-yl)cyclopentyl) morpholine]
16 | 465 | 221 | CC[C@H]1CN([C@H]2CC[C@@H](c3nc(-c4cnc(C(F)(F)F)nc4)nn3C(C)C)C2)CCO1 [Compound 154, (S)-2-Ethyl-4-((1S,3R)-3-(1-isopropyl-3-(2-(trifluoromethyl)pyrimidin-5-yl)-1H-1,2,4-triazol-5-yl)cyclopentyl)morpholine]
17 | 30.8 | 6.79 | CC(C)n1nc(-c2cncc(Cl)c2)nc1[C@H]1CC[C@@H](N2CCOC[C@@H]2C)C1 [Compound 126, (S)-4-((1R,3S)-3-(3-(5-Chloropyridin-3-yl)-1-isopropyl-1H-1,2,4-triazol-5-yl)cyclopentyl)-3-methylmorpholine]
18 | 505 | 129 | CC(C)n1nc(-c2cnc(C(F)(F)F)nc2)nc1[C@@H]1CC[C@@H](N2CCO[C@@H](C)C2)C1 [Compound 151, (S)-4-((1R,3R)-3-(1-Isopropyl-3-(2-(trifluoromethyl)pyrimidin-5-yl)-1H-1,2,4-triazol-5-yl)cyclopentyl)-2-methylmorpholine]
19 | 1740 | 14.5 | CC[C@H]1CN([C@@H]2CC[C@H](c3nc(-c4cnc(C(F)(F)F)c(F)c4)nn3C(C)C)C2)CCO1 [Compound 147, (S)-2-Ethyl-4-((1R,3S)-3-(3-(5-fluoro-6-(trifluoromethyl)pyridin-3-yl)-1-isopropyl-1H-1,2,4-triazol-5-yl)cyclopentyl)morpholine]
20 | 43.8 | 4.07 | CC[C@@H]1CN([C@@H]2CC[C@H](c3nc(-c4ccc(C(F)F)nc4)nn3C(C)C)C2)CCO1 [Compound 156, (R)-4-((1R,3S)-3-(3-(6-(Difluoromethyl)pyridin-3-yl)-1-isopropyl-1H-1,2,4-triazol-5-yl)cyclopentyl)-2-ethylmorpholine]
21 | 465 | 305 | CC[C@H]1CN([C@@H]2CC[C@@H](c3nc(-c4cnc(C(F)(F)F)nc4)nn3C(C)C)C2)CCO1 [Compound 155, (S)-2-Ethyl-4-((1R,3R)-3-(1-isopropyl-3-(2-(trifluoromethyl)pyrimidin-5-yl)-1H-1,2,4-triazol-5-yl)cyclopentyl) morpholine]
22 | 106 | 168 | CC(C)n1nc(-c2cnc(C(F)(F)F)nc2)cc1[C@H]1CC[C@@H](N2CCO[C@@H](CF)C2)C1 (single isomer, unassigned) [Compound 131*]
23 | 299 | 83.5 | CC(C)n1nc(-c2cnc(C(F)(F)F)nc2)nc1[C@H]1CC[C@H](N2CCO[C@H](C)C2)C1 [Compound 145, (R)-4-((1S,3S)-3-(1-isopropyl-3-(2-(trifluoromethyl)pyrimidin-5-yl)-1H-1,2,4-triazol-5-yl)cyclopentyl)-2-methylmorpholine]
